Assay results published in patent US9381173B2, “Isolated stereoisomeric forms of (S)2-N(3-O-(propan 2-Ol)-1-propyl-4-hydroxybenzene)-3-phenylpropylamide” (Novaremed Ltd., priority 2011, dated 2016).

Tests used:
BLK = BLK (Homo sapiens, UniProt P51451); assay: BLK mobility-shift kinase assay (Caliper LabChip 3000); assay type: biochemical; details: 5 concentrations, duplicate wells; listed as (S,S) enantiomer
Protocol: (§1) Each compound and concentration was tested in duplicate wells.
(§2) Data points are the averages of duplicate wells. Error bars represent the mean±replicate % activity.

Lyn A = Lyn A (Homo sapiens, UniProt P07948); assay: Lyn A mobility-shift kinase assay (Caliper LabChip 3000); assay type: biochemical; details: 5 concentrations, duplicate wells; listed as (S,S) enantiomer
Protocol: as §1, §2

[1] = test system: spinal nerve ligation (SNL or Chung) model for neuropathic pain in rats; assay: Spinal nerve ligation (Chung) model, Von Frey test for mechanical allodynia; assay type: in vivo; details: for delta force right minus left leg, Day 14 Pretreatment / mean Von Frey force, left operated leg, Day 14 Pretreatment: before first dose; for difference (delta) force between right healthy leg and left operated leg, Baseline: before operation; for mean Von Frey force required for withdrawal of the left operated leg, Baseline: day -1, before operation
Protocol: The antinociceptive and analgesic activity of E1 in a spinal nerve ligation (SNL or Chung) model for neuropathic pain in rats was evaluated.
On study day 0, all animals underwent Chung surgery, which consisted of an operation where the left L5-L6 spinal nerves were isolated and cut. Fourteen days post surgery the animals were selected using pain threshold results from the Von Frey test. Only animals that indicated signs of mechanical allodynia were included in the study. After the selection process, the animals were grouped and Test Items were administered via IP. The pain response was measured using Von Frey methodology at 2, 5 and 24 hours after Test Item administration on study day 14, and at 2, 5, 24 and 48 hours on study day 21 after 7 days of Test Item administration.
Species: 50 SD young adult male rats, 225-260 g at study initiation (Harlan Laboratories, Israel. Ltd.)
Neuropathic Pain Induction: While under anesthesia using ketamine/xylazine sodium and after the area was shaved, the rat was placed in a prone position and the left paraspinal muscles were separated from the spinous process at the L4-S2 levels. The L6 vertebral transverse process was carefully removed with a small rongeur to visually identify the L5-L6 spinal nerves. The left L5-L6 spinal nerves were cut. The muscle was then closed with 4-0 silk sutures and the skin was closed by a clamp. Following surgery, the rats were returned to the cage and remained under a heating lamp until they awoke.
Inclusion/Exclusion Criteria for Pre-Selection: On post-operative day 14, animals were tested for mechanical allodynia using Von Frey methodology prior to being placed in their experimental groups. Only animals with a pain threshold of ≦26 g for the operated leg were included in the study. In order to form homogenous treatment groups and to adhere to randomization, all the operated rats were grouped according to inclusion/exclusion criteria.
The Von Frey test was performed prior to Test Items' administrations (pre-TI injection) and at 2 and 5 hours after TI administration (post-TI injection) on study days 14 and 21.
Von Frey test was performed prior to TI's administration on study day 15 (24 hours post-TI's administration on study day 14) and on study days 22 and 23 (24 and 48 hours respectively post-TI's administration on study day 21).
Pain Response Evaluation: Pain response was evaluated using Von Frey test for mechanical allodynia.
The Von Frey test for mechanical allodynia is based on applying short pulses of pressure that are not painful to a naive animal. In fact, in order to achieve paw withdrawal from a naive animal, the pressure applied is sometimes higher than 60 g. This often requires the researcher to apply enough pressure with the Von Frey filament to actually lift the paw of the naive animal. However, in disease conditions, the animals are sensitive to much lower pressure and experience pain as a result of a normally non-painful stimulus.
Mechanical Allodynia Evaluation (Von Frey Testing): Allodynic response to tactile stimulation was assessed using the Von Frey apparatus (Touch®).
The rats were placed in an enclosure and positioned on a metal mesh surface, but allowed to move freely. The rats' cabins were covered with red cellophane to diminish environmental disturbances. The test began after cessation of exploratory behavior. The set of Von Frey monofilaments provide an approximate logarithmic scale of actual force and a linear scale of perceived intensity as provided by the manufacturer of the Von Frey apparatus (Ugo Basil). The operating principle: When the tip of a fiber of given length and diameter is pressed against the skin at right angles, the force of application increases as long as the researcher continues to advance the probe until the fiber bends. After the fiber bends, the probe continues to advance, causing the fiber to bend more, but without additional force being applied to the paw. […]

Lyn B = Lyn B (Homo sapiens, UniProt P07948); assay: Lyn B mobility-shift kinase assay (Caliper LabChip 3000); assay type: biochemical; details: 5 concentrations, duplicate wells; listed as (S,S) enantiomer
Protocol: as §1, §2

[2] = 7.5 mg/kg IP, day 14, 2, 5 and 24 hours
[3] = 7.5 mg/kg IP, study day 14, 2, 5 and 24 hours
[4] = 15 mg/kg IP once daily day 14-21 (group 4)
[5] = 15 mg/kg IP, day 14, 5 and 24 hours
[6] = 15 mg/kg IP, study day 14, 5 and 24 hours
[7] = 30 mg/kg IP once daily day 14-21 (group 3)
[8] = 30 mg/kg IP once daily from day 14 (group 3)
[9] = 30 mg/kg IP, day 21, 2, 5 and 24 hours

Sequence of Lyn B (P07948 1-491 isoform P07948-2, species assumed): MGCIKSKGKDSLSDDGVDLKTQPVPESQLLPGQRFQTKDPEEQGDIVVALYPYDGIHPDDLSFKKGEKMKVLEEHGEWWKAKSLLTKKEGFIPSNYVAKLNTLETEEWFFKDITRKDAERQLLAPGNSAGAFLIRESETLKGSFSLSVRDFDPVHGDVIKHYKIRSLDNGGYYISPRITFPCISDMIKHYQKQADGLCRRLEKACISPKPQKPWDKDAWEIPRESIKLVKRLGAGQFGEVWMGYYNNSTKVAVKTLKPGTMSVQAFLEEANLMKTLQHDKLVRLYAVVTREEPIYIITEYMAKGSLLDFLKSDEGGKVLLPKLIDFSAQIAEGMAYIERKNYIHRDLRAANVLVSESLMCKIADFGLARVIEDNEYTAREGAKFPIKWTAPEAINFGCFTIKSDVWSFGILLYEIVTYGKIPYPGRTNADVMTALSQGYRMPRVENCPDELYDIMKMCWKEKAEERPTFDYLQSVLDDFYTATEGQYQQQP
Sequence of BLK (P51451 whole entry, species assumed): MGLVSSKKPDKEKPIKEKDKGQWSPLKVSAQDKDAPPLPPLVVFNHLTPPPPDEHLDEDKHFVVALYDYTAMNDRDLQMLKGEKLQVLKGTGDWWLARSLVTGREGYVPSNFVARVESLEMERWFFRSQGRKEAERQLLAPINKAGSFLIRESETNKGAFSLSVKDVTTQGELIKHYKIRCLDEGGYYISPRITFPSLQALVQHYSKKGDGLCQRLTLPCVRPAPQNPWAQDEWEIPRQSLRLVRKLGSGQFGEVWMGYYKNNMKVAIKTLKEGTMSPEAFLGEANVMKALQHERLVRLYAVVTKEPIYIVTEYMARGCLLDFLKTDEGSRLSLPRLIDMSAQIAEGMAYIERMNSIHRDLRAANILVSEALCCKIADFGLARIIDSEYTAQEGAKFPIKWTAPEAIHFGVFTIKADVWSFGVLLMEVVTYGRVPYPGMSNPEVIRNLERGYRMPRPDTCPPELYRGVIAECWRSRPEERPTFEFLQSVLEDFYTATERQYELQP
Sequence of Lyn A (P07948 whole entry, species assumed): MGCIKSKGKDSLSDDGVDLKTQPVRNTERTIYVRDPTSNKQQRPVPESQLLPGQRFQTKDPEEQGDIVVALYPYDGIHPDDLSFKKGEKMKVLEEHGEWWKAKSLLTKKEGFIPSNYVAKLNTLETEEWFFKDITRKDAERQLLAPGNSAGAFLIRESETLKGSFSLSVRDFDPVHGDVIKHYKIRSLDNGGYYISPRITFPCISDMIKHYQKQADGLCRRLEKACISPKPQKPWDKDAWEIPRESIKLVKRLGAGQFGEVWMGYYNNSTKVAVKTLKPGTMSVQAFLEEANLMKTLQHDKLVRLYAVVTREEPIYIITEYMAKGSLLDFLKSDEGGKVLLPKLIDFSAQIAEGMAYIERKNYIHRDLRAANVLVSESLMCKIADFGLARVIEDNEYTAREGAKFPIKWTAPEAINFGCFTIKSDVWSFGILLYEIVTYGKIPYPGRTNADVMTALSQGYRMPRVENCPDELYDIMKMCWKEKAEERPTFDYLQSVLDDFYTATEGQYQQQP

modulation of BLK tyrosine kinase activity (BLK): activated
modulation of LynA tyrosine kinase activity (Lyn A): activated
modulation of LynB tyrosine kinase activity (Lyn B): had no effect
Structure (SMILES): CC(O)COCC(Cc1ccc(O)cc1)NC(=O)CCc1ccccc1 (single isomer, unassigned) [E1]
delta force right minus left leg, Day 14 Pretreatment ([1]; 7.5 mg/kg IP (group 5)): 50.10 ± 0.64 g
mean Von Frey force, left operated leg, Day 14 Pretreatment ([1]; 7.5 mg/kg IP (group 5)): 9.90 ± 0.64 g
difference (delta) force between right healthy leg and left operated leg, Baseline ([1]; 7.5 mg/kg IP (group 5)): 0.00 ± 0.00 g
mean Von Frey force required for withdrawal of the left operated leg, Baseline ([1]; 7.5 mg/kg IP (group 5)): 56.60 ± 3.40 g
inhibition of allodynia compared to the pretreatment value of delta withdrawal force [1, 2]: inhibited allodynia
pain relief activity, delta withdrawal force between the two legs vs. Vehicle [1, 2]: significant pain relief activity
inhibition of allodynia compared to the pretreatment value of delta withdrawal force ([1]; 7.5 mg/kg IP, day 21, 5 hours): inhibited allodynia
pain relief activity, delta withdrawal force between the two legs vs. Vehicle ([1]; 7.5 mg/kg IP, day 21 pretreatment, 2, 5, 24 and 48 hours): significant pain relief activity
inhibition of allodynia (Von Frey) compared to the Vehicle control [1, 3]: effectively inhibited allodynia
inhibition of allodynia (Von Frey) compared to the pretreatment value [1, 3]: inhibited allodynia
inhibition of allodynia (Von Frey) compared to the pretreatment value ([1]; 7.5 mg/kg IP, study day 21, 5 hours): inhibited allodynia
inhibition of allodynia (Von Frey) compared to the Vehicle control ([1]; 7.5 mg/kg IP, study day 21 pretreatment and 2, 5, 24 and 48 hours): inhibited allodynia
conclusion: pain analgesic item, parameters of mechanical allodynia ([1]; 7.5 mg/kg, 2, 5 and 24 hours day 14, 2, 5, 24 and 48 hours day 21): effective
delta force right minus left leg, Day 14 Post-treatment 2 hours ([1]; 15 mg/kg IP (group 4)): 48.20 ± 5.67 g
delta force right minus left leg, Day 14 Post-treatment 5 hours ([1]; 15 mg/kg IP (group 4)): 29.20 ± 6.66 g
mean Von Frey force, left operated leg, Day 14 Post-treatment 2 hours ([1]; 15 mg/kg IP (group 4)): 11.80 ± 5.67 g
delta force right minus left leg, Day 14 Pretreatment ([1]; 15 mg/kg IP (group 4)): 50.20 ± 0.90 g
mean Von Frey force, left operated leg, Day 14 Pretreatment ([1]; 15 mg/kg IP (group 4)): 9.80 ± 0.90 g
difference (delta) force between right healthy leg and left operated leg, Baseline ([1]; 15 mg/kg IP (group 4)): 0.00 ± 0.00 g
mean Von Frey force required for withdrawal of the left operated leg, Baseline ([1]; 15 mg/kg IP (group 4)): 56.60 ± 3.40 g
delta force right minus left leg, Day 21 Post-treatment 48 hours [1, 4]: 39.80 ± 4.80 g
mean Von Frey force, left operated leg, Day 21 Post-treatment 48 hours [1, 4]: 20.20 ± 4.80 g
inhibition of allodynia compared to the pretreatment value of delta withdrawal force [1, 5]: inhibited allodynia
pain relief activity, delta withdrawal force between the two legs vs. Vehicle [1, 5]: significant pain relief activity
pain relief activity, delta withdrawal force between the two legs vs. Vehicle ([1]; 15 mg/kg IP, day 21 pretreatment, 2, 5 and 24 hours): significant pain relief activity
inhibition of allodynia (Von Frey) compared to the Vehicle control [1, 6]: inhibited allodynia
inhibition of allodynia (Von Frey) compared to the pretreatment value [1, 6]: inhibited allodynia
inhibition of allodynia (Von Frey) compared to the Vehicle control ([1]; 15 mg/kg IP, study day 14, 2 hours): did not inhibit allodynia
inhibition of allodynia (Von Frey) compared to the Vehicle control ([1]; 15 mg/kg IP, study day 21, 48 hours): less effective
inhibition of allodynia (Von Frey) compared to the Vehicle control ([1]; 15 mg/kg IP, study day 21 pretreatment, 2, 5 and 24 hours): inhibited allodynia
conclusion: pain analgesic item, parameters of mechanical allodynia ([1]; 15 mg/kg, 5 and 24 hours day 14, 2, 5 and 24 hours day 21): effective
delta force right minus left leg, Day 14 Post-treatment 2 hours ([1]; 30 mg/kg IP (group 3)): 46.80 ± 1.70 g
delta force right minus left leg, Day 14 Post-treatment 24 hours ([1]; 30 mg/kg IP (group 3)): 34.80 ± 6.25 g
mean Von Frey force, left operated leg, Day 14 Post-treatment 2 hours ([1]; 30 mg/kg IP (group 3)): 13.20 ± 1.70 g
mean Von Frey force, left operated leg, Day 14 Post-treatment 5 hours ([1]; 30 mg/kg IP (group 3)): 30.60 ± 5.10 g
delta force right minus left leg, Day 14 Pretreatment ([1]; 30 mg/kg IP (group 3)): 49.50 ± 1.06 g
mean Von Frey force, left operated leg, Day 14 Pretreatment ([1]; 30 mg/kg IP (group 3)): 10.50 ± 1.06 g
difference (delta) force between right healthy leg and left operated leg, Baseline ([1]; 30 mg/kg IP (group 3)): 0.00 ± 0.00 g
mean Von Frey force required for withdrawal of the left operated leg, Baseline ([1]; 30 mg/kg IP (group 3)): 60.00 ± 0.00 g
delta force right minus left leg, Day 21 Post-treatment 48 hours [1, 7]: 51.10 ± 0.82 g
mean Von Frey force, left operated leg, Day 21 Post-treatment 2 hours [1, 7]: 19.40 ± 1.80 g
mean Von Frey force, left operated leg, Day 21 Post-treatment 5 hours [1, 7]: 22.90 ± 4.64 g
mean Von Frey force, left operated leg, Day 21 Post-treatment 24 hours [1, 7]: 17.50 ± 2.48 g
mean Von Frey force, left operated leg, Day 21 Post-treatment 48 hours [1, 7]: 8.90 ± 0.82 g
delta force right minus left leg, Day 21 Pretreatment [1, 8]: 47.00 ± 1.76 g
mean Von Frey force, left operated leg, Day 21 Pretreatment [1, 8]: 13.00 ± 1.76 g
inhibition of allodynia compared to the pretreatment value of delta withdrawal force ([1]; 30 mg/kg IP, day 14, 5 hours): inhibited allodynia
pain relief activity, delta withdrawal force between the two legs vs. Vehicle ([1]; 30 mg/kg IP, day 14, 5 hours): significant pain relief activity
inhibition of allodynia compared to the pretreatment value of delta withdrawal force [1, 9]: inhibited allodynia
pain relief activity, delta withdrawal force between the two legs vs. Vehicle [1, 9]: significant pain relief activity
inhibition of allodynia (Von Frey) compared to the pretreatment value ([1]; 30 mg/kg IP, study day 14, 5 hours): inhibited allodynia
inhibition of allodynia (Von Frey) compared to the pretreatment value ([1]; 30 mg/kg IP, study day 21, 2, 5 and 24 hours): inhibited allodynia
conclusion: pain analgesic item, parameters of mechanical allodynia ([1]; 30 mg/kg, at 5 post administration day 14, 2, 5 and 24 hours day 21): effective
duration of analgesic effect post administration ([1]; summary statement): more than 24 hours
behaviour of the operated paw on the Von Frey apparatus ([1]; treated animals): laid completely the operated paw on the metal mesh surface
